{"source": "patent US20230167088A1", "about": "“1-PYRAZINYLPYRAZOLYL-3-OXYALKYL ACIDS AND THEIR DERIVATIVES, AND THEIR USE FOR CONTROL OF UNDESIRED PLANT GROWTH” (BAYER AKTIENGESELLSCHAFT, priority 2020, published 2023)", "key": {"ECHCG [1]": {"test_system": "ECHCG", "test": "Herbicidal pre-emergence action 2b (doubly sown, 1280 g/ha)", "type": "in vivo, Echinochloa crus-galli", "settings": "doubly sown pots, dosage 1280 g/ha, visual scoring after about 3 weeks", "summary_of_the_method": "(§1)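 Weed seeds sown in sandy loam, two species per pot, covered with soil; compounds as WP or EC applied to soil surface as aqueous suspension/emulsion with 0.5% additive at 600 L/ha water. Greenhouse growth; visual % activity vs untreated controls after about 3 weeks (100% = dead, 0% = like control).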"}, "POAAN [2]": {"test_system": "POAAN", "test": "Herbicidal post-emergence action 1b (twin sowing, 1280 g/ha)", "type": "in vivo, Poa annua", "settings": "dosage 1280 g/ha, visual rating about 3 weeks after treatment", "summary_of_the_method": "(§2)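 Twin-sown mono- and dicot weeds in sandy loam were sprayed post-emergence at the one-leaf stage, 2–3 weeks after sowing, with WP or EC formulations in water plus 0.5% additive at 600 L/ha. After about 3 weeks in the greenhouse, activity was rated visually against untreated controls (0% = like control, 100% = plants dead).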"}, "MATIN [3]": {"test_system": "MATIN", "test": "Herbicidal post-emergence action 1b (twin sowing, 1280 g/ha)", "type": "in vivo, Matricaria inodora", "settings": "dosage 1280 g/ha, visual rating about 3 weeks after treatment", "summary_of_the_method": "as §2"}, "ABUTH": {"test_system": "ABUTH", "test": "Herbicidal post-emergence action 1b (twin sowing, 1280 g/ha)", "type": "in vivo, Abutilon theophrasti", "settings": "dosage 1280 g/ha, visual rating about 3 weeks after treatment", "method": "(§3) [table] b) Seeds of mono- and dicotyledonous weed plants are placed in plastic pots in sandy loam soil (twin sowing with one species each of mono- or dicotyledonous weed plants per pot), covered with soil and cultivated in a greenhouse under controlled growth conditions. 2 to 3 weeks after sowing, the test plants are treated at the one-leaf stage. The compounds of the invention, formulated in the form of wettable powders (WP) or as emulsion concentrates (EC), are applied to the green parts of the plants as aqueous suspension or emulsion with addition of 0.5% additive at a water application rate equivalent to 600 litres per hectare. After the test plants have been kept in the greenhouse under optimum growth conditions for about 3 weeks, the activity of the preparations is rated visually in comparison to untreated controls. For example, 100% activity=the plants have died, 0% activity=like control plants. Tables A16 to A21 below show the effects of selected compounds of the general formula (I) according to Tables 1 and 2 on various harmful plants and at an application rate corresponding to 1280 g/ha, which were obtained by the experimental procedure mentioned above."}, "MATIN [4]": {"test_system": "MATIN", "test": "Herbicidal pre-emergence action 2b (doubly sown, 1280 g/ha)", "type": "in vivo, Matricaria inodora", "settings": "doubly sown pots, dosage 1280 g/ha, visual scoring after about 3 weeks", "summary_of_the_method": "as §1"}, "DIGSA [5]": {"test_system": "DIGSA", "test": "Herbicidal pre-emergence action 2b (doubly sown, 1280 g/ha)", "type": "in vivo, Digitaria sanguinalis", "settings": "doubly sown pots, dosage 1280 g/ha, visual scoring after about 3 weeks", "summary_of_the_method": "as §1"}, "AMARE": {"test_system": "AMARE", "test": "Herbicidal pre-emergence action 2b (doubly sown, 1280 g/ha)", "type": "in vivo, Amaranthus retroflexus", "settings": "doubly sown pots, dosage 1280 g/ha, visual scoring after about 3 weeks", "summary_of_the_method": "as §1"}, "DIGSA [6]": {"test_system": "DIGSA", "test": "Herbicidal post-emergence action 1b (twin sowing, 1280 g/ha)", "type": "in vivo, Digitaria sanguinalis", "settings": "dosage 1280 g/ha, visual rating about 3 weeks after treatment", "method": "as §3"}, "POAAN [7]": {"test_system": "POAAN", "test": "Herbicidal pre-emergence action 2b (doubly sown, 1280 g/ha)", "type": "in vivo, Poa annua", "settings": "doubly sown pots, dosage 1280 g/ha, visual scoring after about 3 weeks", "summary_of_the_method": "as §1"}, "STEME [8]": {"test_system": "STEME", "test": "Herbicidal post-emergence action 1b (twin sowing, 1280 g/ha)", "type": "in vivo, Stellaria media", "settings": "dosage 1280 g/ha, visual rating about 3 weeks after treatment", "summary_of_the_method": "as §2"}, "STEME [9]": {"test_system": "STEME", "test": "Herbicidal pre-emergence action 2b (doubly sown, 1280 g/ha)", "type": "in vivo, Stellaria media", "settings": "doubly sown pots, dosage 1280 g/ha, visual scoring after about 3 weeks", "summary_of_the_method": "as §1"}, "ECHCG [10]": {"test_system": "ECHCG", "test": "Herbicidal post-emergence action 1b (twin sowing, 1280 g/ha)", "type": "in vivo, Echinochloa crus-galli", "settings": "dosage 1280 g/ha, visual rating about 3 weeks after treatment", "method": "as §3"}}}
{"smiles": "COC(=O)[C@H](C)Oc1nn(-c2cnccn2)c(-c2ccc(F)nc2)c1Br", "note": "[Example I-18]", "values": [{"measurement": "Pre-emergence action at 1280 g/ha against ECHCG in %", "setting": "ECHCG [1]", "value": 100, "unit": "%"}, {"measurement": "Post-emergence action at 1280 g/ha against POAAN in %", "setting": "POAAN [2]", "value": 100, "unit": "%"}, {"measurement": "Post-emergence action at 1280 g/ha against MATIN in %", "setting": "MATIN [3]", "value": 90, "unit": "%"}, {"measurement": "Post-emergence action at 1280 g/ha against ABUTH in %", "setting": "ABUTH", "value": 90, "unit": "%"}, {"measurement": "Pre-emergence action at 1280 g/ha against MATIN in %", "setting": "MATIN [4]", "value": 90, "unit": "%"}, {"measurement": "Pre-emergence action at 1280 g/ha against DIGSA in %", "setting": "DIGSA [5]", "value": 100, "unit": "%"}, {"measurement": "Pre-emergence action at 1280 g/ha against AMARE in %", "setting": "AMARE", "value": 100, "unit": "%"}, {"measurement": "Post-emergence action at 1280 g/ha against DIGSA in %", "setting": "DIGSA [6]", "value": 100, "unit": "%"}, {"measurement": "Pre-emergence action at 1280 g/ha against POAAN in %", "setting": "POAAN [7]", "value": 100, "unit": "%"}, {"measurement": "Post-emergence action at 1280 g/ha against STEME in %", "setting": "STEME [8]", "value": 100, "unit": "%"}, {"measurement": "Pre-emergence action at 1280 g/ha against STEME in %", "setting": "STEME [9]", "value": 100, "unit": "%"}]}
{"smiles": "COC(=O)[C@@H](C)Oc1nn(-c2cnccn2)c(-c2cncnc2)c1Br", "note": "[Example I-30]", "values": [{"measurement": "Pre-emergence action at 1280 g/ha against ECHCG in %", "setting": "ECHCG [1]", "value": 100, "unit": "%"}, {"measurement": "Post-emergence action at 1280 g/ha against POAAN in %", "setting": "POAAN [2]", "value": 100, "unit": "%"}, {"measurement": "Post-emergence action at 1280 g/ha against ABUTH in %", "setting": "ABUTH", "value": 90, "unit": "%"}, {"measurement": "Pre-emergence action at 1280 g/ha against MATIN in %", "setting": "MATIN [4]", "value": 90, "unit": "%"}, {"measurement": "Pre-emergence action at 1280 g/ha against DIGSA in %", "setting": "DIGSA [5]", "value": 100, "unit": "%"}, {"measurement": "Pre-emergence action at 1280 g/ha against AMARE in %", "setting": "AMARE", "value": 100, "unit": "%"}, {"measurement": "Post-emergence action at 1280 g/ha against DIGSA in %", "setting": "DIGSA [6]", "value": 100, "unit": "%"}, {"measurement": "Pre-emergence action at 1280 g/ha against POAAN in %", "setting": "POAAN [7]", "value": 100, "unit": "%"}, {"measurement": "Post-emergence action at 1280 g/ha against STEME in %", "setting": "STEME [8]", "value": 90, "unit": "%"}, {"measurement": "Pre-emergence action at 1280 g/ha against STEME in %", "setting": "STEME [9]", "value": 100, "unit": "%"}, {"measurement": "Post-emergence action at 1280 g/ha against ECHCG in %", "setting": "ECHCG [10]", "value": 90, "unit": "%"}]}
{"smiles": "O=C(O)COc1nn(-c2cnccn2)c(-c2ccc(F)nc2)c1Br", "note": "[Example I-49, {[4-bromo-5-(6-fluoropyridin-3-yl)-1-(pyrazin-2-yl)-1H-pyrazol-3-yl]oxy}acetic acid]", "values": [{"measurement": "Pre-emergence action at 1280 g/ha against ECHCG in %", "setting": "ECHCG [1]", "value": 100, "unit": "%"}, {"measurement": "Post-emergence action at 1280 g/ha against POAAN in %", "setting": "POAAN [2]", "value": 100, "unit": "%"}, {"measurement": "Post-emergence action at 1280 g/ha against MATIN in %", "setting": "MATIN [3]", "value": 100, "unit": "%"}, {"measurement": "Post-emergence action at 1280 g/ha against ABUTH in %", "setting": "ABUTH", "value": 100, "unit": "%"}, {"measurement": "Pre-emergence action at 1280 g/ha against MATIN in %", "setting": "MATIN [4]", "value": 100, "unit": "%"}, {"measurement": "Pre-emergence action at 1280 g/ha against DIGSA in %", "setting": "DIGSA [5]", "value": 100, "unit": "%"}, {"measurement": "Pre-emergence action at 1280 g/ha against AMARE in %", "setting": "AMARE", "value": 100, "unit": "%"}, {"measurement": "Post-emergence action at 1280 g/ha against DIGSA in %", "setting": "DIGSA [6]", "value": 90, "unit": "%"}, {"measurement": "Pre-emergence action at 1280 g/ha against POAAN in %", "setting": "POAAN [7]", "value": 100, "unit": "%"}, {"measurement": "Post-emergence action at 1280 g/ha against STEME in %", "setting": "STEME [8]", "value": 90, "unit": "%"}, {"measurement": "Pre-emergence action at 1280 g/ha against STEME in %", "setting": "STEME [9]", "value": 100, "unit": "%"}, {"measurement": "Post-emergence action at 1280 g/ha against ECHCG in %", "setting": "ECHCG [10]", "value": 100, "unit": "%"}]}
{"smiles": "O=C(COc1nn(-c2cnccn2)c(-c2ccc(F)nc2)c1Br)OCc1ccccn1", "note": "[Example I-70]", "values": [{"measurement": "Pre-emergence action at 1280 g/ha against ECHCG in %", "setting": "ECHCG [1]", "value": 100, "unit": "%"}, {"measurement": "Post-emergence action at 1280 g/ha against MATIN in %", "setting": "MATIN [3]", "value": 100, "unit": "%"}, {"measurement": "Post-emergence action at 1280 g/ha against ABUTH in %", "setting": "ABUTH", "value": 100, "unit": "%"}, {"measurement": "Pre-emergence action at 1280 g/ha against MATIN in %", "setting": "MATIN [4]", "value": 100, "unit": "%"}, {"measurement": "Pre-emergence action at 1280 g/ha against DIGSA in %", "setting": "DIGSA [5]", "value": 100, "unit": "%"}, {"measurement": "Pre-emergence action at 1280 g/ha against AMARE in %", "setting": "AMARE", "value": 100, "unit": "%"}, {"measurement": "Post-emergence action at 1280 g/ha against DIGSA in %", "setting": "DIGSA [6]", "value": 100, "unit": "%"}, {"measurement": "Pre-emergence action at 1280 g/ha against POAAN in %", "setting": "POAAN [7]", "value": 100, "unit": "%"}, {"measurement": "Post-emergence action at 1280 g/ha against STEME in %", "setting": "STEME [8]", "value": 100, "unit": "%"}, {"measurement": "Pre-emergence action at 1280 g/ha against STEME in %", "setting": "STEME [9]", "value": 100, "unit": "%"}, {"measurement": "Post-emergence action at 1280 g/ha against ECHCG in %", "setting": "ECHCG [10]", "value": 90, "unit": "%"}]}
